In ChEMBL document CHEMBL3045094, “A cytotoxic agent from Strychnos nux-vomica and biological evaluation of its modified analogues” (Med Chem Res, 2012):
Values after ≈ are worked out from the molar mass of the structure shown.

Assays:
[1] = test system: COLO 320; assay: Cytotoxic activity against Homo sapiens (human) COLO320 cells incubated for 4 hr followed by compound wash-out measured after doubling time by MTT assay; assay type: functional, cell-based
[2] = test system: Bacopa monnieri; assay: Toxicity against Bacopa monnieri assessed as number of roots at 50 ug/ml after 15 days by Bacopa sensor test (reference value: 2); assay type: organism-based; settings: in vivo, 360 h
[3] = test system: Bacopa monnieri; assay: Toxicity against Bacopa monnieri assessed as number of shoots at 50 ug/ml after 15 days by Bacopa sensor test (reference value: 2); assay type: organism-based; settings: in vivo, 360 h
[4] = test system: Caco-2; assay: Cytotoxic activity against Homo sapiens (human) Caco2 cells by clonogenic assay; assay type: functional, cell-based
[5] = test system: MCF7; assay: Cytotoxic activity against Homo sapiens (human) MCF7 cells by clonogenic assay; assay type: functional, cell-based
[6] = test system: WRL68; assay: Cytotoxic activity against Homo sapiens (human) WRL68 cells by clonogenic assay; assay type: functional, cell-based
[7] = test system: PA-1; assay: Cytotoxic activity against Homo sapiens (human) PA1 cells by clonogenic assay; assay type: functional, cell-based
[8] = test system: Bacopa monnieri; assay: Toxicity against Bacopa monnieri assessed as number of leaves at 50 ug/ml after 15 days by Bacopa sensor test (reference value: 6); assay type: organism-based; settings: in vivo, 360 h
[9] = test system: WRL68; assay: Cytotoxic activity against Homo sapiens (human) WRL68 cells incubated for 4 hr followed by compound wash-out measured after doubling time by MTT assay; assay type: functional, cell-based
[10] = test system: Caco-2; assay: Cytotoxic activity against Homo sapiens (human) Caco2 cells incubated for 4 hr followed by compound wash-out measured after doubling time by MTT assay; assay type: functional, cell-based
[11] = test system: Bacopa monnieri; assay: Toxicity against Bacopa monnieri assessed as shoot elongation at 50 ug/ml after 15 days by Bacopa sensor test (reference value: 0.8 cm); assay type: organism-based; settings: in vivo, 360 h
[12] = test system: PA-1; assay: Cytotoxic activity against Homo sapiens (human) PA1 cells incubated for 4 hr followed by compound wash-out measured after doubling time by MTT assay; assay type: functional, cell-based
[13] = test system: Bacopa monnieri; assay: Toxicity against Bacopa monnieri assessed as change in leaf colour at 50 ug/ml after 15 days by Bacopa sensor test; assay type: organism-based; settings: in vivo, 360 h
[14] = test system: COLO 320; assay: Cytotoxic activity against Homo sapiens (human) COLO320 cells by clonogenic assay; assay type: functional, cell-based
[15] = test system: MCF7; assay: Cytotoxic activity against Homo sapiens (human) MCF7 cells incubated for 4 hr followed by compound wash-out measured after doubling time by MTT assay; assay type: functional, cell-based
[16] = test system: COLO 320; assay: Ratio of vinblastine IC50 to compound IC50 for Homo sapiens (human) COLO320 cells by MTT assay; assay type: functional
[17] = test system: WRL68; assay: Ratio of vinblastine IC50 to compound IC50 for Homo sapiens (human) WRL68 cells by MTT assay; assay type: functional
[18] = test system: Caco-2; assay: Ratio of vinblastine IC50 to compound IC50 for Homo sapiens (human) Caco2 cells by MTT assay; assay type: functional
[19] = Homo sapiens, COLO 320, 4 h, read-out: IC50
[20] = Homo sapiens, WRL68, 4 h, read-out: IC50
[21] = Homo sapiens, Caco-2, 4 h, read-out: IC50
[22] = Homo sapiens, PA-1, 4 h, read-out: IC50
[23] = Homo sapiens, MCF7, 4 h, read-out: IC50

Row | SMILES | IC50 [1, 19] | Activity [2] | Activity [3] | IC50 [4] | IC50 [5] | IC50 [6] | IC50 [7] | Activity [8] | IC50 [9, 20] | IC50 [10, 21] | Activity [11] | IC50 [12, 22] | Activity [13] | IC50 [14] | IC50 [15, 23] | IC50 ([10]; caco-2) | also measured
1 | COC(=O)C1=CO[C@@H](O[C@@H]2O[C@H](COC(=O)c3cccc([N+](=O)[O-])c3)[C@@H](OC(C)=O)[C@H](OC(C)=O)[C@H]2OC(C)=O)[C@@H]2[C@@H](C)[C@@H](OC(C)=O)C[C@H]12 | 0.44 µg/mL (≈ 0.622 µM) | 2 | 2 | 5.42 µg/mL (≈ 7.66 µM) | 3.42 µg/mL (≈ 4.83 µM) | 6.5 µg/mL (≈ 9.19 µM) | 2.65 µg/mL (≈ 3.74 µM) | 6 | 3.2 µg/mL (≈ 4.52 µM) | 1 µg/mL (≈ 1.41 µM) | 0.8 cm | 0.85 µg/mL (≈ 1.2 µM) | Non-toxic | 8.2 µg/mL (≈ 11.6 µM) | 1.25 µg/mL (≈ 1.77 µM) |  | 
2 | COC(=O)C1=CO[C@@H](O[C@@H]2O[C@H](CO)[C@@H](OC(C)=O)[C@H](OC(C)=O)[C@H]2OC(C)=O)[C@@H]2[C@@H](C)[C@@H](OC(C)=O)C[C@H]12 |  |  |  |  |  |  |  |  |  |  |  |  |  |  |  | Not Active | IC50 ([1]; colo 320): Not Active; IC50 ([9]; wrl68): Not Active; IC50 ([12]; pa-1): Not Active; IC50 ([15]; mcf7): Not Active
3 | CCC(=O)OC[C@H]1O[C@@H](O[C@@H]2OC=C(C(=O)OC)[C@H]3C[C@H](OC(C)=O)[C@H](C)[C@@H]23)[C@H](OC(C)=O)[C@@H](OC(C)=O)[C@@H]1OC(C)=O | 0.85 µg/mL (≈ 1.38 µM) | 2 | 2 | 4.88 µg/mL (≈ 7.94 µM) | 4.26 µg/mL (≈ 6.93 µM) | 8.4 µg/mL (≈ 13.7 µM) | 2.85 µg/mL (≈ 4.64 µM) | 4 | 2.65 µg/mL (≈ 4.31 µM) | 2.85 µg/mL (≈ 4.64 µM) | 0.65 cm | 1.24 µg/mL (≈ 2.02 µM) | Non-toxic | 4.86 µg/mL (≈ 7.91 µM) | 1.88 µg/mL (≈ 3.06 µM) |  | 
4 | CCCCCCCCCCCC(=O)OC[C@H]1O[C@@H](O[C@@H]2OC=C(C(=O)OC)[C@H]3C[C@H](OC(C)=O)[C@H](C)[C@@H]23)[C@H](OC(C)=O)[C@@H](OC(C)=O)[C@@H]1OC(C)=O | 0.04 µg/mL (≈ 0.054 µM) | 3 | 2 | 1.24 µg/mL (≈ 1.67 µM) | 0.75 µg/mL (≈ 1.01 µM) | 2.62 µg/mL (≈ 3.54 µM) | 0.42 µg/mL (≈ 0.567 µM) | 6 | 0.85 µg/mL (≈ 1.15 µM) | 0.42 µg/mL (≈ 0.567 µM) | 0 cm | 0.15 µg/mL (≈ 0.202 µM) | Non-toxic | 0.24 µg/mL (≈ 0.324 µM) | 0.24 µg/mL (≈ 0.324 µM) |  | Ratio IC50 [16]: 13; Ratio IC50 [17]: 2
5 | CCCCCCCCCCCCCC(=O)OC[C@H]1O[C@@H](O[C@@H]2OC=C(C(=O)OC)[C@H]3C[C@H](OC(C)=O)[C@H](C)[C@@H]23)[C@H](OC(C)=O)[C@@H](OC(C)=O)[C@@H]1OC(C)=O | 30 µg/mL (≈ 39 µM) |  |  |  |  |  |  |  | 58.5 µg/mL (≈ 76.1 µM) |  |  | 6.5 µg/mL (≈ 8.45 µM) |  |  | 24.6 µg/mL (≈ 32 µM) | Not Active | 
6 | CCCCCCCCCCCCCCCC(=O)OC[C@H]1O[C@@H](O[C@@H]2OC=C(C(=O)OC)[C@H]3C[C@H](OC(C)=O)[C@H](C)[C@@H]23)[C@H](OC(C)=O)[C@@H](OC(C)=O)[C@@H]1OC(C)=O |  |  |  |  |  |  |  |  |  |  |  |  |  |  |  | Not Active | IC50 ([1]; colo 320): Not Active; IC50 ([9]; wrl68): Not Active; IC50 ([12]; pa-1): Not Active; IC50 ([15]; mcf7): Not Active
7 | C=CC(=O)OC[C@H]1O[C@@H](O[C@@H]2OC=C(C(=O)OC)[C@H]3C[C@H](OC(C)=O)[C@H](C)[C@@H]23)[C@H](OC(C)=O)[C@@H](OC(C)=O)[C@@H]1OC(C)=O |  |  |  |  |  |  |  |  |  |  |  |  |  |  |  | Not Active | IC50 ([1]; colo 320): Not Active; IC50 ([9]; wrl68): Not Active; IC50 ([12]; pa-1): Not Active; IC50 ([15]; mcf7): Not Active
8 | COC(=O)C1=CO[C@@H](O[C@@H]2O[C@H](COC(=O)C=C(C)C)[C@@H](OC(C)=O)[C@H](OC(C)=O)[C@H]2OC(C)=O)[C@@H]2[C@@H](C)[C@@H](OC(C)=O)C[C@H]12 | 0.08 µg/mL (≈ 0.125 µM) | 2 | 2 | 6.2 µg/mL (≈ 9.68 µM) | 4.65 µg/mL (≈ 7.26 µM) | 3.86 µg/mL (≈ 6.03 µM) | 1.84 µg/mL (≈ 2.87 µM) | 6 | 1.2 µg/mL (≈ 1.87 µM) | 0.8 µg/mL (≈ 1.25 µM) | 0.4 cm | 0.65 µg/mL (≈ 1.01 µM) | Non-toxic | 2.84 µg/mL (≈ 4.43 µM) | 1 µg/mL (≈ 1.56 µM) |  | 
9 | COC(=O)C1=CO[C@@H](O[C@@H]2O[C@H](COC(=O)c3cc(OC)c(OC)c(OC)c3)[C@@H](OC(C)=O)[C@H](OC(C)=O)[C@H]2OC(C)=O)[C@@H]2[C@@H](C)[C@@H](OC(C)=O)C[C@H]12 | 0.04 µg/mL (≈ 0.0531 µM) | 2 | 2 | 0.46 µg/mL (≈ 0.611 µM) | 0.72 µg/mL (≈ 0.957 µM) | 1.2 µg/mL (≈ 1.59 µM) | 0.45 µg/mL (≈ 0.598 µM) | 4 | 0.54 µg/mL (≈ 0.717 µM) | 0.06 µg/mL (≈ 0.0797 µM) | 0.4 cm | 0.1 µg/mL (≈ 0.133 µM) | Non-toxic | 0.12 µg/mL (≈ 0.159 µM) | 0.25 µg/mL (≈ 0.332 µM) |  | Ratio IC50 [16]: 13; Ratio IC50 [18]: 8; Ratio IC50 [17]: 3
10 | COC(=O)C1=CO[C@@H](O[C@@H]2O[C@H](COC(c3ccccc3)(c3ccccc3)c3ccccc3)[C@@H](O)[C@H](O)[C@H]2O)[C@@H]2[C@@H](C)[C@@H](O)C[C@H]12 [6'-O-TRITYL LOGANIN] | 0.25 µg/mL (≈ 0.395 µM) | 2 | 2 | 2.54 µg/mL (≈ 4.01 µM) | 2.8 µg/mL (≈ 4.43 µM) | 4.2 µg/mL (≈ 6.64 µM) | 2.42 µg/mL (≈ 3.82 µM) | 6 | 1.86 µg/mL (≈ 2.94 µM) | 0.56 µg/mL (≈ 0.885 µM) | 0.4 cm | 0.65 µg/mL (≈ 1.03 µM) | Non-toxic | 1.4 µg/mL (≈ 2.21 µM) | 1 µg/mL (≈ 1.58 µM) |  | 
11 | COc1cccc2c1C(=O)c1c(O)c3c(c(O)c1C2=O)C[C@@](O)(C(=O)CO)C[C@@H]3O[C@H]1C[C@H](N)[C@H](O)[C@H](C)O1 [DOXORUBICIN] |  | 0 | 1 |  |  |  |  | 2 |  |  | 0.2 cm |  | Toxic |  |  |  | 
12 | COC(=O)C1=CO[C@@H](O[C@@H]2O[C@H](CO)[C@@H](O)[C@H](O)[C@H]2O)[C@@H]2[C@@H](C)[C@@H](O)C[C@H]12 [LOGANIN] | 1 µg/mL (≈ 2.56 µM) | 2 | 2 | 3.45 µg/mL (≈ 8.84 µM) | 6.45 µg/mL (≈ 16.5 µM) | 3.2 µg/mL (≈ 8.2 µM) | 4.85 µg/mL (≈ 12.4 µM) | 6 | 1.86 µg/mL (≈ 4.76 µM) | 1.28 µg/mL (≈ 3.28 µM) | 0.4 cm | 1.45 µg/mL (≈ 3.71 µM) | Non-toxic | 2.2 µg/mL (≈ 5.64 µM) | 4.85 µg/mL (≈ 12.4 µM) |  | 
13 | CC[C@]1(O)C[C@@H]2CN(CCc3c([nH]c4ccccc34)[C@@](C(=O)OC)(c3cc4c(cc3OC)N(C)[C@H]3[C@@](O)(C(=O)OC)[C@H](OC(C)=O)[C@]5(CC)C=CCN6CC[C@]43[C@@H]65)C2)C1 [VINBLASTINE] | 0.52 µg/mL (≈ 0.641 µM) | 2 | 2 | 2.8 µg/mL (≈ 3.45 µM) |  |  | 0.15 µg/mL (≈ 0.185 µM) | 6 |  | 0.46 µg/mL (≈ 0.567 µM) | 0.6 cm | 0.03 µg/mL (≈ 0.037 µM) | Non-toxic | 1.6 µg/mL (≈ 1.97 µM) |  |  | 
